How the values were obtained:
[1] = human cancer patients, after a single high dose; cited from earlier work
[2] = system: Hh pathway activation induced by loss of suFU; test: Gli-luciferase assay in suFU−/− mouse embryonic fibroblasts; type: cell-based; settings: suFU−/− cells
Protocol: (§1) Hh activity assays were performed using ShhLightll cells, Smo/Lightll cells, SmoM2/Lightll cells, and suFU−/− mouse embryonic fibroblasts. In the suFU−/− cells, Hh activity was measured after co-transfection with Gli driven firefly luciferase and TK-renilla luciferase reporters^41. Wnt activity was measured in 293 cells co-transfected with Top-flash and TK-renilla luciferase reporters^42. Cells were cultured and treated in 96 well assay plates (Corning) and incubated with Duo-Glo luciferase substrates (Promega) to measure firefly and renilla luciferase activity sequentially using a Top Count NX Microplate Scintillation and Luminescence Counter (Perkin Elmer). The renilla luciferase signal was used to normalize the firefly reporter activity.
ShhLightII cells and SmoM2/LightII cells were cultured and treated in 96 well assay plates (Corning) and incubated with Duo-Glo luciferase substrates (Promega) to sequentially measure firefly and renilla luciferase activity. […] Wnt activity was measured following co-transfection of a Top-flash and renilla luciferase reporter. […] Luciferase signal was read by TopCount NX Microplate Scintillation and Luminescence Counter (Perkin Elmer). Quantitative PCR probes for Ptch1, Gli1, and β-actin were purchased from Applied Biosystems. […]

[3] = molecular target: T1, SmoM2::GFP (Homo sapiens, UniProt Q99835, W535L); test: Ciliary localization of SmoM2::GFP (3T3/SmoM2::GFP Overexpression/Ivs::tagRFPT); type: cell-based; settings: SmoM2::EGFP overexpressing cells
T1 construct: expressed in transfected cells
T1 sequence (Q99835 28-787 W535L): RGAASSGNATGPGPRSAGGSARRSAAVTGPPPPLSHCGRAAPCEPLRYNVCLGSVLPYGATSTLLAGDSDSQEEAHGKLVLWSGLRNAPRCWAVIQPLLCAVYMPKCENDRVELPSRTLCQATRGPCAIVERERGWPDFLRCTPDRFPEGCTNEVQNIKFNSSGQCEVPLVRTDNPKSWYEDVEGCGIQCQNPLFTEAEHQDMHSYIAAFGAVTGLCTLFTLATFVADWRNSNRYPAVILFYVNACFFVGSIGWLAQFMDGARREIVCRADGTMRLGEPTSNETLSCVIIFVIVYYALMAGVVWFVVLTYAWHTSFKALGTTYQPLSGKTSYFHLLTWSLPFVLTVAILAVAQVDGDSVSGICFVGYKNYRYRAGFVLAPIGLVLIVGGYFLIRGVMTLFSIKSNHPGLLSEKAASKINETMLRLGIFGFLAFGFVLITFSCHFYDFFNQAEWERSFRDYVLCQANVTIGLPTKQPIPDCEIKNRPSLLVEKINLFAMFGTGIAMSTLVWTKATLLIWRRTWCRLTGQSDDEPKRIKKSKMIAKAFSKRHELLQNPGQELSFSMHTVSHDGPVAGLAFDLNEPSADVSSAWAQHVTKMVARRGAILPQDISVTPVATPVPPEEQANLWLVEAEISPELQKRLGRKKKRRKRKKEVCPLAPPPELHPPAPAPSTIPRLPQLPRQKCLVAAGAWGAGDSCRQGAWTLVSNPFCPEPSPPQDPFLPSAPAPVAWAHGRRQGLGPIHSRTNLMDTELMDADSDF
From the text: (§2) NIH/3T3 cells were maintained in DMEM containing 10% (v/v) calf serum, penicillin, streptomycin, and L-glutamine. HEK293, L, cos 7, and suFU−/− mouse embryonic fibroblast cells were maintained in DMEM containing 10% (v/v) fetal bovine serum, penicillin, streptomycin, and L-glutamine. Smo::EGFP, SmoM2::GFP, and Ivs::tagRFPT were cloned into pBabe to generate retroviral particles for infection. Smo::EGFP/Ivs::tagRFPT and SmoM2::GFP/Ivs::tagRFPT stable cell lines were generated through viral infection of NIH/3T3^12. A ShhLightII Gli reporter cell line was obtained from the American Type Culture Collection (ATCC) and used in luciferase reporter assays to measure Hh pathway activity. The cell line contains a stably integrated Gli-responsive Firefly luciferase reporter and a constitutive Renilla luciferase expression construct^33. Subclones expressing Smo or SmoM2 in ShhLightII cells were used for chemical epistasis analyses.
(§3) Cells were cultured and treated in 384-well imaging plate precoated with poly-D-Lysine (Greiner Bio-one), fixed with 4% paraformaldehyde (Electron Microscopy Sciences), and stained with Hoechst (Invitrogen). Images were collected using Opera High Content Screening System (Perkin Elmer). Activityl)ase (IDBS Inc, Emeryvill, Calif.) and Pipeline Pilot (Accelrys, Inc. San Diego, Calif.) were used for high content screening data management and analysis. Acapella 2.0 software (Evotec Technologies/PerkinElmer) was used to perform multi-parametrical high content image quantification. All the images for comparison were scanned with identical microscopic settings and analyzed with the same input parameters.
(§4) Acapella 2.0 software (Evotec Technologies/PerkinElmer) was used to perform multi-parametric high content image quantification. Our image analysis script used Ivs::tagREPT to first determine the location of the PC and then Smo::EGFP to quantify the level of Smo present in the cilium.

[4] = molecular target: T2, Smo::EGFP (Homo sapiens, UniProt Q99835); test: High content assay of Shh-induced Smo::EGFP accumulation in the primary cilium (Smo::EGFP/Ivs::tagRFPT NIH/3T3 cells); type: cell-based; settings: in the presence of Shh
T2 construct: expressed in transfected cells
T2 sequence (Q99835 28-787): as the sequence (Q99835 28-787 W535L) above, with L508W counted along it
From the text: as §2, §3, §4
The inventors used the spot-finding algorithm in the RFP channel to find Ivs-rich spots. Each non-overlapping spot was based on a maximum 8 pixel-radius (when using a 40× objective) around a central intensity peak of 5 pixels. A distance of at least 10 pixels was required between adjacent spot centers. Spot peaks had to exceed thresholds of relative intensity compared to the remaining body of the spot as well as to the entire image. The average, maximum and total RFP intensity of each spot were measured. The spots with sufficiently high absolute maxima to pass the selected threshold were classified as positive spots. To form candidate cilia, the inventors selected the brightest 15% of the pixels in each positive spot and merged those pixels into objects so that the brightest parts of adjacent spots could form single, larger cilia-shaped objects. To qualify the candidate cilia as true Ivs-positive cilia, the width of the objects created from merging the brightest pixels in each spot had to be at least 2 pixels and the length to half-width ratio had to exceed 3. (i.e. a 3-pixel long by 2-pixel wide cilium was the minimum accepted cilium size and the length had to be at least 1.5 fold of the width). The mean GFP intensity within these Ivs-positive cilia was used to estimate the ciliary level of Smo protein. The inventors subtracted the background of the mean GFP intensity in the 3-pixel wide area around each candidate cilium to avoid some false positives. Those Ivs-positive cilia that exceed the final mean GFP intensity threshold set for each experiment were deemed Smo-positive cilia.
Hoechst staining was used to determine the total number of nuclei per well.
Measurements of the geometry of the cilia as well as the total fluorescent intensities of each cilium in the Smo- and Ivs-channels were used to determine if any of the compounds were having unusual effects on cilia size, intensity or frequency of observation or combinations of all three characteristics.

[5] = molecular target: T2, Smo::EGFP; test: Cyc-induced Smo ciliary accumulation (Smo::EGFP/Ivs::tagRFPT cells); type: cell-based; settings: 5 μM Cyc
Protocol: as §3, §4

[6] = molecular target: T2, Smo::EGFP; test: FA promoted accumulation of Smo in the PC, inhibition by Smo antagonists; type: cell-based; settings: FA-induced
Protocol: Cells were cultured and treated in 384-well imaging plate precoated with poly-D-Lysine (Greiner Bio-one), fixed with 4% paraformaldehyde (Electron Microscopy Sciences), and stained with Hoechst (Invitrogen). Images were collected using Opera High Content Screening System (Perkin Elmer). ActivityBase (IDBS), Pipeline Pilot (Accelrys), Excel (Microsoft), and Prism (GraphPad) were used for high content screening data management and analysis. Acapella 2.0 software (Evotec Technologies/PerkinElmer) was used to perform multi-parametric image quantification. All the comparative images were scanned with identical microscopic setting and analyzed with the same input parameters.

[7] = system: Hh pathway activity; test: Priming and withdrawal of compound followed by Shh stimulation, Gli-luciferase reporter (hypersensitivity); type: cell-based; settings: priming 24 hours, washout, then Shh (or SAG) stimulation
Protocol: as §1
Following the removal of drug containing medium, and extensive washing, cells were stimulated with either Hh ligand, or the direct-binding Smo agonist SAG^17,18.
(§5) ShhLightII cells and SmoM2/LightII cells were cultured and treated in 96 well assay plates (Corning) and incubated with Duo-Glo luciferase substrates (Promega) to sequentially measure firefly and renilla luciferase activity. Smo, or GFP, expression plasmids were co-transfected into 3T3 cells together with a Gli-responsive firefly reporter and a TK-renilla luciferase reporter contruct to monitor effects of Smo overexpression. Co-transfection of the two reporter constructs was conducted in assays measuring Hh pathway activity in suFU−/− cells. Wnt activity was measured following co-transfection of a Top-flash and renilla luciferase reporter. In both Hh and Wnt activity assays, renilla luciferase reporter activity, or mass of protein, was used to normalize expression values. Luciferase signal was read by TopCount NX Microplate Scintillation and Luminescence Counter (Perkin Elmer). Quantitative PCR probes for Ptch1, Gli1, and β-actin were purchased from Applied Biosystems. Reactions and measurements were performed using on an Applied Biosystems 7900HT at Harvard FAS Center of System Biology. β-actin was used to normalize Ptch1 and Gil1 values.

[8] = system: Hh pathway activity; test: Gli-luciferase reporter assay, Shh-induced Hh pathway activity (ShhLightII cells); type: cell-based; settings: Gli-luciferase induction and Smo ciliary localization; 10 μM FA
From the text: as §2, §1, §5

[9] = system: SmoM2; test: Gli-luciferase reporter induced by SmoM2::GFP overexpression (SmoM2/LightII cells); type: cell-based; settings: SmoM2 versus wild-type Smo
From the text: as §2, §1, §5

[10] = system: Smo; test: Bodipy-cyclopamine competition assay in Cos 7 cells expressing Smo; type: binding; settings: cells over-expressing Smo, 5 nM Bodipy-cyclopamine
Protocol: Cos 7 cells were transfected with a plasmid co-expressing Smo and a nuclear localized form of tagRFPT (pCIT-Smo). An empty parental construct (pCIT), and a construct that co-expresses SmoM2, were used as controls to assess specificity and background noise. Three days after transfection, cells were incubated with 5 nM Bodipy-cyclopamine, with or without other compounds for 1 hour at 37 °C. Cells were washed, fixed and stained with Hoechst. Images were collected by an Opera High Content Screen System. Bodipy fluorescence was quantified specifically for transfected cells (determined by red tagRFPT+ nucleus) using a program developed by the authors with Acapella 2.0 software. All of the images were scanned with identical microscopic settings and analyzed with the same input parameters.
Cos 7 cells were transfected with a plasmid that co-expresses Smo and a nuclear localized tagRFPT marker (pCIT-Smo). The empty parental construct (pCIT) and a construct that co-express SmoM2 were used as controls to assess specificity and background signal. Three days after transfection, cells were incubated with 5 nM Bodipy-cyclopamine, with or without additional compounds, for 1 hour at 37° C. Cells were then fixed and stained with Hoechst. Images were collected with the Opera High Content Screen System. Fluorescence values were assessed in transfected cells (red nuclei) with a program developed by the authors using Acapella 2.0 software. All of images were scanned with identical microscopic setting and analyzed with the same input parameters.

[11] = system: Hh pathway activity; test: Gli-luciferase reporter assay, Hh pathway activation by compound alone (NIH/3T3 cells); type: cell-based; settings: FA at high concentrations
Protocol: as §5

effect on Hh pathway activation induced by loss of suFU [2]	effect on SmoM2 ciliary localization [3]	effect on Cyc induced Smo cilial accumulation [5]	effect on FA promoted accumulation of Smo in the PC [6]	hypersensitivity to Hh pathway stimulation after priming with and removal of compound, Gli-luciferase [7]	IC50's for SmoM2 relative to IC50's for wildtype Smo [9]	SMILES	peak plasma concentration [1]	inhibition of Shh-induced Smo::EGFP accumulation in the PC [4]	Hh pathway inhibition by the antagonist in the presence of FA [8]	competition of Bodipy-Cyc binding to Smo [10]	effect on FA induced activation of the Hh pathway [11]
						C[C@@H]1C[C@H]2[C@@H]3CCC4=CC(=O)C=C[C@]4(C)[C@@]3(F)[C@@H](O)C[C@]2(C)[C@@]1(O)C(=O)CO [Dexamethasone]	> 10 µM				
does not alter	did not alter SmoM2 ciliary accumulation	effectively compete with Cyc	inhibit	no enhancing activity	at least an order of magnitude higher	CS(=O)(=O)c1ccc(C(=O)Nc2ccc(Cl)c(-c3ccccn3)c2)c(Cl)c1 [GDC0449]		specifically inhibited Smo::EGFP accumulation in the PC	dramatically reduced		
	did not alter SmoM2 ciliary accumulation	effectively compete with Cyc	inhibit		at least an order of magnitude higher	Cc1nn(-c2ccccc2)c(C)c1/C=N/N1CCN(Cc2ccccc2)CC1 [SANT-1]		specifically inhibited Smo::EGFP accumulation in the PC	dramatically reduced	effective competitor	blocked
